Experimental data: patent US20180179499A1, “BIOBASED PRODUCTION OF FUNCTIONALIZED ALPHA-SUBSTITUTED ACRYLATES AND C4-DICARBOXYLATES” (BIOAMBER INC., priority 2015, published 2018)

How the values were obtained:
[1] = tested on: potential yeast hosts (I. orientalis, S. cerevisiae); assay: Tolerance of potential yeast hosts: maximum concentration in which growth was detected; type: cell-based
Method: (§1) Two eukaryotic strains, I. orientalis and S. cerevisiae, were tested at pH 3 and pH 5. Three bacterial strains were tested using their individual optimal conditions. E. coli and C. glutamicum were tested at pH 8 and 30° C., and B. firmus was tested at pH 9 and 37° C. I. orientalis was grown in defined yeast media consisting of 5 g/L ammonium sulfate, 0.5 g/L magnesium sulfate heptahydrate, 3 g/L potassium phosphate monobasic, 10 g/L dextrose, 1 mL/L of 10% glycerol stock, 1 mL/L of 1000× trace. The 1000× trace stock solution contains 4 g/L ZnSO4.7H2O, 2 g/L FeSO4.7H2O, 1 g/L MnSO4.H2O, 0.2 g/L CuSO4.5H2O, and 0.8 mL/L H2SO4. S. cerevisiae was grown in buffered defined dextrose media consisting of 50 g/L dextrose, 5 g/L yeast extract, and 40 mL/L 25× DM salts. The 25× DM salt stock solution contains 125 g/L ammonium sulfate, 12.5 g/L magnesium sulfate heptahydrate, 75 g/L potassium phosphate monobasic, and 787.5 g/L water. The bacterial strains were grown in standard LB media consisting of 10 g/L bacto-tryptone, 5 g/L yeast extract, 10 g/L NaCl, and 20 g/L dextrose with addition of 20 g/L glucose.
(§2) Time points were taken over a period of at least 8 hours and up to 24 hours to calculate the rate of growth. Specific growth rate was determined by plotting the natural logarithm of cell number against time. Tolerance was determined by growth rate of cells in the presence of the compound as compared to in the absence of the compound.
(§3) Two eukaryotic strains, I. orientalis and S. cerevisiae, were tested for tolerance to the selected compounds at pH 3 and pH 5. The bacterial strains were grown at their individual optimal conditions, E coli and C. glutamicum at pH 8 and 30° C., and B. firmus and B. cohnii at pH 9 and 37° C. I. orientalis was grown in defined yeast media consisting of 5 g/L ammonium sulfate, 0.5 g/L magnesium sulfate heptahydrate, 3 g/L potassium phosphate monobasic, 10 g/L dextrose, 1 mL/L of 10% glycerol stock, 1 mL/L of 1000× trace. The 1000× trace stock solution contains 4 g/L ZnSO4.7H2O, 2 g/L FeSO4.7H2O, 1 g/L MnSO4.H2O, 0.2 g/L CuSO4.5H2O, and 0.8 mL/L H2SO4. S. cerevisiae was grown in buffered defined dextrose media consisting of 50 g/L dextrose, 5 g/L yeast extract, and 40 mL/L 25×DM salts. The 25×DM salt stock solution contains 125 g/L ammonium sulfate, 12.5 g/L magnesium sulfate heptahydrate, 75 g/L potassium phosphate monobasic, and 787.5 g/L water. The bacterial strains were grown in standard LB media consisting of 10 g/L bacto-tryptone, 5 g/L yeast extract, 10 g/L NaCl, and 20 g/L dextrose with addition of 20 g/L glucose.
as §2

[2] = tested on: potential bacterial hosts (E. coli, C. glutamicum, B. firmus, B. cohnii); assay: Tolerance of potential bacterial hosts: highest concentration with growth observed; type: cell-based; conditions: Table L
Method: as §1, §2, §3, §2

[3] = Synthase activity assay (DTNB, lysates of BL21 E. coli expressing the candidate); type: biochemical; conditions: 0.5 mM hydroxypyruvate
Method: E coli optimized genes encoding synthases were synthesized and cloned into pTrcHisA (Life Technologies (formerly Invitrogen)). Synthase genes tested are found in Table G. Plasmids containing the optimized synthase genes were transformed into BL21 E. coli cells. Empty plasmid pTrcHisA was also transformed as a negative control. […]. Flasks were incubated at 30° C. at 250 rpm shaking for 2 hours, then protein production was induced with 0.2 mM IPTG and incubated for 4 more hours at 30° C. while shaking. Cells were harvested by centrifugation and pellets were stored at −80° C.
Activity of synthase candidates was assessed with an in vitro assay using DTNB (5,5′-Dithiobis(2-nitrobenzoic acid)) as an indicator. The enzyme activity was tested using either no substrate or hydroxypyruvate as the substrate. The DTNB interacts with the free thio created by the condensation of acetyl-CoA and the substrate present. Unless otherwise specified, all chemicals were purchased from Sigma-Aldrich Chemical Company, St. Louis, Mo.
Cells were lysed using mechanical disruption using a BeadBeater (BopSpec products, Bartlesville, Okla.) following the manufacturer's instructions. The cell lysate was partially clarified by centrifugation (14,000G for 5 minutes). Protein concentrations of the resulting clarified lysates were measured via BioRad total Protein assay using the manufacturer's instructions. Lysates were normalized by protein concentration in 100 mM Tris buffer. The normalized lysates were diluted 1 to 7 in 100 mM Tris buffer. 20 μl of lysate was added to each well for the 96-well plate assay. Each condition was performed in triplicate.
The reaction mixture contains 100 mM Tris pH 7.4, 5 mM MgSO4, 0.2 mM acetyl-CoA, 0.5 mM DTNB, 0.5 mM substrate, hydroxypyruvate. To start the reaction, 180 μl of reaction mix was added to each well already containing 20 μl lysate. The reactions in these microplates were monitored at 412 nm. Readings were taken every 9 seconds for 10 minutes and the data was used to calculate activities of each enzyme. Synthase activity was observed when hydroxypyruvate was the substrate as compared to cells containing empty vector (FIG. 20(a), Table G). Background absorbance as measured by the same reaction with no substrate present were subtracted. Error bars in the graphs reflect the standard deviations calculated for the averages for each condition performed in triplicate. Specific mutations change the activity of the enzymes tested (FIG. 20(b), Table H). Further enzyme engineering will improve specificity and activity of desired enzymatic reaction.

[4] = Table G, 0.2 mM acetyl-CoA, pH 7.4, no-substrate background subtracted
[5] = Table H, wild type and mutant synthases

CC(C)C(O)(CC(=O)O)C(=O)O (stereo not shown) [2-isopropylmalic acid]
Max conc (maximum concentration in which growth was detected) ([1]; Table E): 50 g/L

CC(C)C(C(=O)O)C(O)C(=O)O (stereo not shown) [3-isopropylmalic acid]
Max conc (maximum concentration in which growth was detected) ([1]; Table E): 50 g/L

C=C(CO)C(=O)OCC [Ethyl hydroxymethyl acrylate]
Max conc (maximum concentration in which growth was detected) ([1]; Table K): 20 g/L

C=CC(=O)OCCO [Hydroxyethyl acrylate]
Max conc (maximum concentration in which growth was detected) ([1]; Table K): 5 g/L | Max conc (maximum concentration in which growth was detected) [2]: 20 g/L

C=CC(=O)OCO [Hydroxymethyl acrylate]
Max conc (maximum concentration in which growth was detected) ([1]; Table K): 20 g/L | Max conc (maximum concentration in which growth was detected) [2]: 20 g/L

C=C1CCOC1=O [MBL]
Max conc (maximum concentration in which growth was detected) ([1]; Table K): 5 g/L | Max conc (maximum concentration in which growth was detected) [2]: 5 g/L

C=C1CC(C)OC1=O (stereo not shown) [MeMBL, methyl 2-methylene 4 butyrolactone]
Max conc (maximum concentration in which growth was detected) ([1]; Table K): 5 g/L | Max conc (maximum concentration in which growth was detected) [2]: 5 g/L

AvNifV: candidate synthase NifV, Azotobacter vinelandii, GenBank AAA22169
Activity with hydroxy pyruvate [3, 4]: 0.054 µmol/min/mg

Methyl hydroxyethyl acrylate
Max conc (maximum concentration in which growth was detected) ([1]; Table K): 5 g/L | Max conc (maximum concentration in which growth was detected) [2]: 20 g/L

B1: SpLys4mt1: Lys4 mutant D123N, Schizosaccharomyces pombe (protein, UniProt Q9Y823 1-418, looked up, variant D123N)
chain: MSVSEANGTETIKPPMNGNPYGPNPSDFLSRVNNFSIIESTLREGEQFANAFFDTEKKIQIAKALDNFGVDYIELTSPVASEQSRQDCEAICKLGLKCKILTHIRCHMDDARVAVETGVDGVNVVIGTSQYLRKYSHGKDMTYIIDSATEVINFVKSKGIEVRFSSEDSFRSDLVDLLSLYKAVDKIGVNRVGIADTVGCATPRQVYDLIRTLRGVVSCDIECHFHNDTGMAIANAYCALEAGATHIDTSILGIGERNGITPLGALLARMYVTDREYITHKYKLNQLRELENLVADAVEVQIPFNNYITGMCAFTHKAGIHAKAILANPSTYEILKPEDFGMSRYVHVGSRLTGWNAIKSRAEQLNLHLTDAQAKELTVRIKKLADVRTLAMDDVDRVLREYHADLSDADRITKEASA
Activity with hydroxy pyruvate [3, 5]: 0.004

B2: SpLys4mt2: Lys4 mutant D123N, V125F, Schizosaccharomyces pombe (protein, UniProt Q9Y823 1-418, looked up, variant D123N V125F)
chain: MSVSEANGTETIKPPMNGNPYGPNPSDFLSRVNNFSIIESTLREGEQFANAFFDTEKKIQIAKALDNFGVDYIELTSPVASEQSRQDCEAICKLGLKCKILTHIRCHMDDARVAVETGVDGVNVFIGTSQYLRKYSHGKDMTYIIDSATEVINFVKSKGIEVRFSSEDSFRSDLVDLLSLYKAVDKIGVNRVGIADTVGCATPRQVYDLIRTLRGVVSCDIECHFHNDTGMAIANAYCALEAGATHIDTSILGIGERNGITPLGALLARMYVTDREYITHKYKLNQLRELENLVADAVEVQIPFNNYITGMCAFTHKAGIHAKAILANPSTYEILKPEDFGMSRYVHVGSRLTGWNAIKSRAEQLNLHLTDAQAKELTVRIKKLADVRTLAMDDVDRVLREYHADLSDADRITKEASA
Activity with hydroxy pyruvate [3, 5]: 0.009

B3: ScLys20: candidate synthase lys20, Saccharomyces cerevisiae, GenBank CAA58264 (protein, UniProt P48570 1-428, looked up)
Homocitrate synthase, …: MTAAKPNPYAAKPGDYLSNVNNFQLIDSTLREGEQFANAFFDTEKKIEIARALDDFGVDYIELTSPVASEQSRKDCEAICKLGLKAKILTHIRCHMDDAKVAVETGVDGVDVVIGTSKFLRQYSHGKDMNYIAKSAVEVIEFVKSKGIEIRFSSEDSFRSDLVDLLNIYKTVDKIGVNRVGIADTVGCANPRQVYELIRTLKSVVSCDIECHFHNDTGCAIANAYTALEGGARLIDVSVLGIGERNGITPLGGLMARMIVAAPDYVKSKYKLHKIRDIENLVADAVEVNIPFNNPITGFCAFTHKAGIHAKAILANPSTYEILDPHDFGMKRYIHFANRLTGWNAIKARVDQLNLNLTDDQIKEVTAKIKKLGDVRSLNIDDVDSIIKNFHAEVSTPQVLSAKKNKKNDSDVPELATIPAAKRTKPSA
Activity with hydroxy pyruvate [3, 4]: 0.095 µmol/min/mg

B4: LiLeuA: candidate synthase LeuA/CimA, Leptospira interogans, GenBank AAN49401 (protein, UniProt Q72RL9 1-501, looked up)
2-isopropylmalate synthase: MDLKDYVRIFDTTLRDGEQCPGAAMTENEKLEIASQLATMKVDIIEAGFPVSSPVQFQAVERIARETEGPMIAALARAMKADIEAASKALQPAKKRRIHTFIASSPIHMKYKLGKEPKEVLKMAVEAVTLCRQFVDDVEFSPEDATRSEPEFLRELCEAVIAAGATTINIPDTVGYTTPAEYGGLFKFLLSNVRGAEKIIFSAHCHNDLGLATANSLAAVQNGARQIECTINGIGERAGNTAMEEVVMAMRTRKDTFGIQTQIKTEEIARASYLVKTITGMLVQPNKAIVGANAFAHESGIHQDGVIKHRETYEIMKPETVGLSSNRMVLGRHSGRAGFKDRIVKLGFSPQVEELEAAYQRFLEIADRKKEIYDEDIRALFSEEARKSTGDRFQLEGFTVSTGTKSTPTAGVRILIDGHVREESATGDGPVDAIYKAIQKTTGMDPEVSRLVISPVTEGQDAMAEASVTLEYKGDRVVGKGSSTDIIEACSRAYISALNRL
Activity with hydroxy pyruvate [3, 4]: 0.045 µmol/min/mg

B5: EcLeuA: candidate synthase LeuA, Escherichia coli, GenBank AAC73185 (protein, UniProt P09151 2-523, looked up)
2-isopropylmalate synthase: SQQVIIFDTTLRDGEQALQASLSVKEKLQIALALERMGVDVMEVGFPVSSPGDFESVQTIARQVKNSRVCALARCVEKDIDVAAESLKVAEAFRIHTFIATSPMHIATKLRSTLDEVIERAIYMVKRARNYTDDVEFSCEDAGRTPIADLARVVEAAINAGATTINIPDTVGYTMPFEFAGIISGLYERVPNIDKAIISVHTHDDLGLAVGNSLAAVHAGARQVEGAMNGIGERAGNCSLEEVIMAIKVRKDILNVHTAINHQEIWRTSQLVSQICNMPIPANKAIVGSGAFAHSSGIHQDGVLKNRENYEIMTPESIGLNQIQLNLTSRSGRAAVKHRMDEMGYKESEYNLDNLYDAFLKLADKKGQVFDYDLEALAFIGKQQEEPEHFRLDYFSVQSGSNDIATAAVKLACGEEVKAEAANGNGPVDAVYQAINRITEYNVELVKYSLTAKGHGKDALGQVDIVANYNGRRFHGVGLATDIVESSAKAMVHVLNNIWRAAEVEKELQRKAQHNENNKETV
Activity with hydroxy pyruvate [3, 4]: 0.022 µmol/min/mg
